Reference: the supplement of paper PMC4862054
Where “and” joins values, the source holds several entries; their conditions need not be identical. Equal entries are not always repeated.

How the values were obtained:
Assay in all cases: normalised viability (% of control), CellTiter-Blue; higher = more viable cells (about 100 = DMSO control)
Conditions in all cases: incubation time: 72 h
[1] = system: CAL-148
Procedure: (§1)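 DSRT, CellTiter-Blue viability, 72 h incubation. Signal is normalised to DMSO and benzethonium chloride controls. Value is the normalised response at dose 8.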

[2] = system: CAL-51
Procedure: as §1

[3] = system: CAL-85-1
Procedure: as §1

[4] = system: DU-4475
Procedure: as §1

[5] = system: HDQ-P1
Procedure: as §1

[6] = system: MDA-MB-453
Procedure: as §1

[7] = system: CAL-148; remark: listed apart in the source
Procedure: (§2)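 DSRT, CellTiter-Blue viability, 72 h incubation. Signal is normalised to DMSO and benzethonium chloride controls. Value is the normalised response at dose 6.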

[8] = system: CAL-51; remark: listed apart in the source
Procedure: as §2

[9] = system: CAL-85-1; remark: listed apart in the source
Procedure: as §2

[10] = system: DU-4475; remark: listed apart in the source
Procedure: as §2

[11] = system: HDQ-P1; remark: listed apart in the source
Procedure: as §2

[12] = system: MDA-MB-453; remark: listed apart in the source
Procedure: as §2

| SMILES | normalised viability [1] | normalised viability [2] | normalised viability [3] | normalised viability [4] | normalised viability [5] | normalised viability [6] | normalised viability [7] | normalised viability [8] | normalised viability [9] | normalised viability [10] | normalised viability [11] | normalised viability [12] |
| --- | --- | --- | --- | --- | --- | --- | --- | --- | --- | --- | --- | --- |
| COc1ccc(S(=O)(=O)Nc2cccnc2Nc2ccc(O)cc2)cc1 [ABT-751] (3000 nM) | 15% | 19% | 26.8% | 17.4% | 37.8% | 27.7% |  |  |  |  |  |  |
| Cc1cc(Nc2nc(N[C@@H](C)c3ncc(F)cn3)ncc2Cl)[nH]n1 [AZD1480] (300 nM) | 106% | 98.8% | 106% | 89.3% | 122% | 94.2% |  |  |  |  |  |  |
| CNC(=O)c1ccccc1Sc1ccc2c(/C=C/c3ccccn3)n[nH]c2c1 [Axitinib] (3000 nM) | 46% | 40.2% | 65.5% | 33.9% | 64.8% | 55.4% |  |  |  |  |  |  |
| CC(O)(CS(=O)(=O)c1ccc(F)cc1)C(=O)Nc1ccc(C#N)c(C(F)(F)F)c1 (stereo not drawn) [Bicalutamide] (3000 nM) | 103% | 120% | 101% | 103% | 96.8% | 114% |  |  |  |  |  |  |
| CCNC(=O)CCC/C=C\C[C@@H]1[C@@H](/C=C/[C@@H](O)CCc2ccccc2)[C@H](O)C[C@@H]1O [Bimatoprost] (1650 nM) | 91.1% | 111% | 102% | 120% | 97.4% | 92.4% |  |  |  |  |  |  |
| COc1cc(Nc2c(C#N)cnc3cc(OCCCN4CCN(C)CC4)c(OC)cc23)c(Cl)cc1Cl [Bosutinib] (3000 nM) | 39.8% | 80.3% | 54.3% | 98.6% | 44.2% | 50.1% |  |  |  |  |  |  |
| CCN(CC)CCCC(C)Nc1ccnc2cc(Cl)ccc12 (stereo not drawn) [Chloroquine] (297 nM) | 95.9% | 93.4% | 96% | 85.2% | 118% | 100% |  |  |  |  |  |  |
| Cn1cc(C2=C(c3cn(C4CCN(Cc5ccccn5)CC4)c4ccccc34)C(=O)NC2=O)c2ccccc21 [Enzastaurin] (300 nM) |  |  |  |  |  |  | 79.2% | 92.3% | 90.2% | 77.5% | 45.9% | 80.6% |
| Cn1cc(C2=C(c3cn(C4CCN(Cc5ccccn5)CC4)c4ccccc34)C(=O)NC2=O)c2ccccc21 [Enzastaurin] (3000 nM) | 69% | 88.6% | 85% | 87.3% | 89.8% | 53.6% |  |  |  |  |  |  |
| CC(C)(C)NC(=O)[C@H]1CC[C@H]2[C@@H]3CC[C@H]4NC(=O)C=C[C@]4(C)[C@H]3CC[C@]12C [Finasteride] (300 nM) |  |  |  |  |  |  | 106% | 105% | 97.8% | 96.4% | 109% | 112% |
| CC(C)(C)NC(=O)[C@H]1CC[C@H]2[C@@H]3CC[C@H]4NC(=O)C=C[C@]4(C)[C@H]3CC[C@]12C [Finasteride] (3000 nM) | 96.4% | 104% | 92.2% | 97% | 127% | 114% |  |  |  |  |  |  |
| Nc1ccn([C@@H]2O[C@H](CO)[C@@H](O)C2(F)F)c(=O)n1 [Gemcitabine] (30 nM) |  |  |  |  |  |  | 42.1% | 42.9% | 58.7% | 72.8% | 74% | 60.2% |
| Nc1ccn([C@@H]2O[C@H](CO)[C@@H](O)C2(F)F)c(=O)n1 [Gemcitabine] (300 nM) | 34.9% | 15.7% | 43.2% | 39.8% | 82.1% | 44.1% |  |  |  |  |  |  |
| CC(C)C[C@H](NC(=O)[C@@H](COC(C)(C)C)NC(=O)[C@H](Cc1ccc(O)cc1)NC(=O)[C@H](CO)NC(=O)[C@H](Cc1c[nH]c2ccccc12)NC(=O)[C@H](Cc1cnc[nH]1)NC(=O)[C@@H]1CCC(=O)N1)C(=O)N[C@@H](CCCNC(=N)N)C(=O)N1CCC[C@H]1C(=O)NNC(N)=O [Goserelin] (300 nM) |  |  |  |  |  |  | 104% | 108% | 99.7% | 106% | 91.4% | 106% |
| CC(C)C[C@H](NC(=O)[C@@H](COC(C)(C)C)NC(=O)[C@H](Cc1ccc(O)cc1)NC(=O)[C@H](CO)NC(=O)[C@H](Cc1c[nH]c2ccccc12)NC(=O)[C@H](Cc1cnc[nH]1)NC(=O)[C@@H]1CCC(=O)N1)C(=O)N[C@@H](CCCNC(=N)N)C(=O)N1CCC[C@H]1C(=O)NNC(N)=O [Goserelin] (3000 nM) | 99.8% | 108% | 103% | 92.5% | 106% | 122% |  |  |  |  |  |  |
| CC(=O)[C@]1(O)Cc2c(O)c3c(c(O)c2[C@@H](O[C@H]2C[C@H](N)[C@H](O)[C@H](C)O2)C1)C(=O)c1ccccc1C3=O [Idarubicin] (30 nM) |  |  |  |  |  |  | 40.7% | 31.1% | 89.9% | 50% | 83.6% | 101% |
| CC(=O)[C@]1(O)Cc2c(O)c3c(c(O)c2[C@@H](O[C@H]2C[C@H](N)[C@H](O)[C@H](C)O2)C1)C(=O)c1ccccc1C3=O [Idarubicin] (300 nM) | 7.71% | 20.9% | 47.1% | 7.47% | 48.7% | 68.7% |  |  |  |  |  |  |
| C/C(=C\c1csc(C)n1)[C@@H]1C[C@@H]2O[C@]2(C)CCC[C@H](C)[C@H](O)[C@@H](C)C(=O)C(C)(C)[C@@H](O)CC(=O)N1 [Ixabepilone] (30 nM) |  |  |  |  |  |  | 99.2% | 103% | 85% | 88.9% | 71.6% | 102% |
| C/C(=C\c1csc(C)n1)[C@@H]1C[C@@H]2O[C@]2(C)CCC[C@H](C)[C@H](O)[C@@H](C)C(=O)C(C)(C)[C@@H](O)CC(=O)N1 [Ixabepilone] (300 nM) | 87.3% | 117% | 76.5% | 92.9% | 81.6% | 89.8% |  |  |  |  |  |  |

| SMILES | normalised viability [1] | normalised viability [2] | normalised viability [3] | normalised viability [4] | normalised viability [5] | normalised viability [6] | normalised viability [7] | normalised viability [8] | normalised viability [9] | normalised viability [10] | normalised viability [11] | normalised viability [12] |
| --- | --- | --- | --- | --- | --- | --- | --- | --- | --- | --- | --- | --- |
| C=CCn1c(=O)c2cnc(Nc3ccc(N4CCN(C)CC4)cc3)nc2n1-c1cccc(C(C)(C)O)n1 [MK1775] (300 nM) |  |  |  |  |  |  | 45.3% | 62.9% | 66.6% | 68.7% | 49.3% | 60% |
| C=CCn1c(=O)c2cnc(Nc3ccc(N4CCN(C)CC4)cc3)nc2n1-c1cccc(C(C)(C)O)n1 [MK1775] (3000 nM) | 6.03% | 7.19% | 19.2% | 2.03% | 27.3% | 19.3% |  |  |  |  |  |  |
| CN(Cc1cnc2nc(N)nc(N)c2n1)c1ccc(C(=O)N[C@@H](CCC(=O)O)C(=O)O)cc1 [Methotrexate] (300 nM) |  |  |  |  |  |  | 66.8% | 48.6% | 68.7% | 110% | 69% | 95.2% |
| CN(Cc1cnc2nc(N)nc(N)c2n1)c1ccc(C(=O)N[C@@H](CCC(=O)O)C(=O)O)cc1 [Methotrexate] (3000 nM) | 56.3% | 39.6% | 57.7% | 101% | 82.7% | 91.4% |  |  |  |  |  |  |
| COc1c2occc2cc2ccc(=O)oc12 [Methoxsalen] (300 nM) |  |  |  |  |  |  | 114% | 104% | 107% | 111% | 88.7% | 99.9% |
| COc1c2occc2cc2ccc(=O)oc12 [Methoxsalen] (3000 nM) | 91.4% | 112% | 96.2% | 94.6% | 118% | 114% |  |  |  |  |  |  |
| CO[C@@H]1[C@H](N(C)C(=O)c2ccccc2)C[C@H]2O[C@]1(C)n1c3ccccc3c3c4c(c5c6ccccc6n2c5c31)C(=O)NC4 [Midostaurin] (300 nM) |  |  |  |  |  |  | 106% | 28.9% | 86.6% | 76% | 53.6% | 65.5% |
| CO[C@@H]1[C@H](N(C)C(=O)c2ccccc2)C[C@H]2O[C@]1(C)n1c3ccccc3c3c4c(c5c6ccccc6n2c5c31)C(=O)NC4 [Midostaurin] (3000 nM) | 84.4% | 6.39% | 73.4% | 3.23% | 50.5% | 69.6% |  |  |  |  |  |  |
| CO[C@@]12[C@H](COC(N)=O)C3=C(C(=O)C(C)=C(N)C3=O)N1C[C@@H]1N[C@@H]12 [Mitomycin C] (300 nM) |  |  |  |  |  |  | 105% | 102% | 98.7% | 86% | 83.7% | 110% |
| CO[C@@]12[C@H](COC(N)=O)C3=C(C(=O)C(C)=C(N)C3=O)N1C[C@@H]1N[C@@H]12 [Mitomycin C] (3000 nM) | 48.5% | 102% | 71.6% | 91.5% | 85.2% | 58.8% |  |  |  |  |  |  |
| CCNC(=O)c1noc(-c2cc(C(C)C)c(O)cc2O)c1-c1ccc(CN2CCOCC2)cc1 [NVP-AUY922] (30 nM) |  |  |  |  |  |  | 16% | 29.4% | 30.5% | 0.85% | 18% | 9.09% |
| CCNC(=O)c1noc(-c2cc(C(C)C)c(O)cc2O)c1-c1ccc(CN2CCOCC2)cc1 [NVP-AUY922] (300 nM) | 16.3% | 8.64% | 24.6% | 0.62% | 30.4% | 8.88% |  |  |  |  |  |  |
| CC1(C)CCC(c2ccc(Cl)cc2)=C(CN2CCN(c3ccc(C(=O)NS(=O)(=O)c4ccc(N[C@H](CCN5CCOCC5)CSc5ccccc5)c(S(=O)(=O)C(F)(F)F)c4)cc3)CC2)C1 [Navitoclax] (300 nM) |  |  |  |  |  |  | 90.4% | 99.9% | 75.2% | 47.2% | 50.2% | 78.1% |
| CC1(C)CCC(c2ccc(Cl)cc2)=C(CN2CCN(c3ccc(C(=O)NS(=O)(=O)c4ccc(N[C@H](CCN5CCOCC5)CSc5ccccc5)c(S(=O)(=O)C(F)(F)F)c4)cc3)CC2)C1 [Navitoclax] (3000 nM) | 71% | 95.3% | 87.8% | 20.1% | 43.5% | 70.3% |  |  |  |  |  |  |
| Cc1cn(-c2cc(NC(=O)c3ccc(C)c(Nc4nccc(-c5cccnc5)n4)c3)cc(C(F)(F)F)c2)cn1 [Nilotinib] (300 nM) |  |  |  |  |  |  | 94.6% and 101% | 109% and 112% | 92.1% and 86% | 90.1% and 113% | 47.2% and 70.8% | 94.5% and 91.4% |
| Cc1cn(-c2cc(NC(=O)c3ccc(C)c(Nc4nccc(-c5cccnc5)n4)c3)cc(C(F)(F)F)c2)cn1 [Nilotinib] (3000 nM) | 83.9% and 89.2% | 108% and 115% | 69.3% and 78.6% | 97.8% and 107% | 67.9% and 66.5% | 87.6% and 97.1% |  |  |  |  |  |  |
| C=CCN(/C=C1/C(=O)O[C@H](COC)[C@@]2(C)C1=C(O)C(=O)C1=C2[C@H](OC(C)=O)C[C@]2(C)C(=O)CC[C@@H]12)CC=C [PX-866] (300 nM) |  |  |  |  |  |  | 116% | 110% | 103% | 93% | 75.8% | 112% |
| C=CCN(/C=C1/C(=O)O[C@H](COC)[C@@]2(C)C1=C(O)C(=O)C1=C2[C@H](OC(C)=O)C[C@]2(C)C(=O)CC[C@@H]12)CC=C [PX-866] (3000 nM) | 108% | 107% | 102% | 95.4% | 70.2% | 114% |  |  |  |  |  |  |
| CC[C@H](CO)Nc1nc(NCc2ccccc2)c2ncn(C(C)C)c2n1 [Roscovitine] (300 nM) |  |  |  |  |  |  | 88.6% | 104% | 93.7% | 97.5% | 59.7% | 86.9% |
